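The compound was tested at five concentrations on cells cultured in 96-well plates, with a 48-hour exposure period. TGI marks complete inhibition of growth.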
What was measured:
Test in all cases: NCI anticancer screen, dose series, 48 h
786-0 renal = system: 786-0 renal
A549 NSCLC = system: A549 NSCLC
ACHN renal = system: ACHN renal
BT-549 breast = system: BT-549 breast
CAKI-1 renal = system: CAKI-1 renal
CCRF-CEM leukemia = system: CCRF-CEM leukemia
COLO 205 colon = system: COLO 205 colon
DU-145 prostate = system: DU-145 prostate
EKVX NSCLC = system: EKVX NSCLC
HCC-2998 colon = system: HCC-2998 colon
HCT-116 colon = system: HCT-116 colon
HCT-15 colon = system: HCT-15 colon
HL-60(TB) leukemia = system: HL-60(TB) leukemia
HOP-62 NSCLC = system: HOP-62 NSCLC
HOP-92 NSCLC = system: HOP-92 NSCLC
HS 578T breast = system: HS 578T breast
HT29 colon = system: HT29 colon
IGROV1 ovarian = system: IGROV1 ovarian
K-562 leukemia = system: K-562 leukemia
KM12 colon = system: KM12 colon
M14 melanoma = system: M14 melanoma
MALME-3M melanoma = system: MALME-3M melanoma
MCF7 breast = system: MCF7 breast
MDA-MB-231 breast = system: MDA-MB-231 breast
MDA-MB-435 = system: MDA-MB-435
MDA-N = system: MDA-N
MOLT-4 leukemia = system: MOLT-4 leukemia
NCI-H226 lung = system: NCI-H226 lung
NCI-H23 lung = system: NCI-H23 lung
NCI-H460 lung = system: NCI-H460 lung
NCI-H522 lung = system: NCI-H522 lung
NCI/ADR-RES ovarian = system: NCI/ADR-RES ovarian
OVCAR-3 ovarian = system: OVCAR-3 ovarian
OVCAR-4 ovarian = system: OVCAR-4 ovarian
OVCAR-5 ovarian = system: OVCAR-5 ovarian
OVCAR-8 ovarian = system: OVCAR-8 ovarian
PC-3 prostate = system: PC-3 prostate
RPMI-8226 leukemia = system: RPMI-8226 leukemia
RXF 393 renal = system: RXF 393 renal
SF-268 CNS = system: SF-268 CNS
SF-295 CNS = system: SF-295 CNS
SF-539 CNS = system: SF-539 CNS
SK-MEL-2 melanoma = system: SK-MEL-2 melanoma
SK-MEL-28 melanoma = system: SK-MEL-28 melanoma
SK-MEL-5 melanoma = system: SK-MEL-5 melanoma
SK-OV-3 ovarian = system: SK-OV-3 ovarian
SN12C renal = system: SN12C renal
SNB-19 CNS = system: SNB-19 CNS
SNB-75 CNS = system: SNB-75 CNS
SR leukemia = system: SR leukemia
SW-620 colon = system: SW-620 colon
T-47D breast = system: T-47D breast
TK-10 renal = system: TK-10 renal
U251 CNS = system: U251 CNS
UACC-257 melanoma = system: UACC-257 melanoma
UACC-62 melanoma = system: UACC-62 melanoma
A498 renal = system: A498 renal
LOX IMVI melanoma = system: LOX IMVI melanoma
UO-31 renal = system: UO-31 renal

For COc1ccc2[nH]c3c(C)c4ncccc4c(C)c3c2c1, the TGI (786-0 renal) was 2.85 µM, the TGI (A549 NSCLC) was 4.88 µM and the TGI (ACHN renal) was greater than 10 µM. For the same compound, the TGI (BT-549 breast) was greater than 10 µM, the TGI (CAKI-1 renal) was greater than 10 µM and the TGI (CCRF-CEM leukemia) was greater than 10 µM. It also gave a TGI (COLO 205 colon) greater than 10 µM, a TGI (DU-145 prostate) greater than 10 µM and a TGI (EKVX NSCLC) greater than 10 µM. The TGI (HCC-2998 colon) was greater than 10 µM, the TGI (HCT-116 colon) was greater than 10 µM and the TGI (HCT-15 colon) was greater than 10 µM. For the same compound, the TGI (HL-60(TB) leukemia) was 5.85 µM, the TGI (HOP-62 NSCLC) was greater than 10 µM and the TGI (HOP-92 NSCLC) was greater than 10 µM. The TGI (HS 578T breast) was greater than 10 µM, the TGI (HT29 colon) was 6.98 µM and the TGI (IGROV1 ovarian) was greater than 10 µM. For the same compound, the TGI (K-562 leukemia) was greater than 10 µM, the TGI (KM12 colon) was 3.87 µM and the TGI (M14 melanoma) was 3.24 µM. The TGI (MALME-3M melanoma) was 3.42 µM, the TGI (MCF7 breast) was 4.81 µM and the TGI (MDA-MB-231 breast) was greater than 10 µM. The TGI (MDA-MB-435) was 3.21 µM, the TGI (MDA-N) was greater than 10 µM and the TGI (MOLT-4 leukemia) was greater than 10 µM. The TGI (NCI-H226 lung) was greater than 10 µM, the TGI (NCI-H23 lung) was greater than 10 µM and the TGI (NCI-H460 lung) was 5.46 µM. It also gave a TGI (NCI-H522 lung) greater than 10 µM, a TGI (NCI/ADR-RES ovarian) greater than 10 µM and a TGI (OVCAR-3 ovarian) of 9.09 µM. The TGI (OVCAR-4 ovarian) was greater than 10 µM, the TGI (OVCAR-5 ovarian) was greater than 10 µM and the TGI (OVCAR-8 ovarian) was greater than 10 µM. The TGI (PC-3 prostate) was greater than 10 µM, the TGI (RPMI-8226 leukemia) was 7.56 µM and the TGI (RXF 393 renal) was 9.39 µM. It also gave a TGI (SF-268 CNS) greater than 10 µM, a TGI (SF-295 CNS) of 9.26 µM and a TGI (SF-539 CNS) greater than 10 µM. It also gave a TGI (SK-MEL-2 melanoma) greater than 10 µM, a TGI (SK-MEL-28 melanoma) of 3.49 µM and a TGI (SK-MEL-5 melanoma) greater than 10 µM. For the same compound, the TGI (SK-OV-3 ovarian) was greater than 10 µM, the TGI (SN12C renal) was greater than 10 µM and the TGI (SNB-19 CNS) was greater than 10 µM. The TGI (SNB-75 CNS) was greater than 10 µM, the TGI (SR leukemia) was greater than 10 µM and the TGI (SW-620 colon) was 4.26 µM. It also gave a TGI (T-47D breast) greater than 10 µM, a TGI (TK-10 renal) greater than 10 µM and a TGI (U251 CNS) greater than 10 µM. For the same compound, the TGI (UACC-257 melanoma) was greater than 10 µM and the TGI (UACC-62 melanoma) was greater than 10 µM.

Compound COc1cc2c3cc1Oc1c(OC)c(OC)cc4c1C(Cc1ccc(O)c(c1)-c1cc(ccc1OC)CC3N(C)CC2)N(C)CC4 (configuration not stated) has a TGI (786-0 renal) greater than 100 µM, a TGI (A498 renal) of 46.3 µM and a TGI (A549 NSCLC) greater than 100 µM. The TGI (ACHN renal) was 56.8 µM, the TGI (BT-549 breast) was 51.1 µM and the TGI (CAKI-1 renal) was 59.6 µM. It also gave a TGI (COLO 205 colon) greater than 100 µM, a TGI (DU-145 prostate) greater than 100 µM and a TGI (EKVX NSCLC) of 91.1 µM. It also gave a TGI (HCC-2998 colon) of 37.9 µM, a TGI (HCT-116 colon) greater than 100 µM and a TGI (HCT-15 colon) of 25.4 µM. It also gave a TGI (HL-60(TB) leukemia) of 15.4 µM, a TGI (HOP-92 NSCLC) of 53.7 µM and a TGI (HS 578T breast) of 59.1 µM. For the same compound, the TGI (HT29 colon) was 50.4 µM, the TGI (IGROV1 ovarian) was 63.7 µM and the TGI (K-562 leukemia) was 61.8 µM. The TGI (KM12 colon) was 37.6 µM, the TGI (LOX IMVI melanoma) was 83 µM and the TGI (M14 melanoma) was 15.5 µM. It also gave a TGI (MALME-3M melanoma) of 41.4 µM, a TGI (MCF7 breast) of 49 µM and a TGI (MDA-MB-231 breast) of 35.4 µM. For the same compound, the TGI (MDA-MB-435) was 61.5 µM, the TGI (MDA-N) was 30.6 µM and the TGI (MOLT-4 leukemia) was 74.2 µM. For the same compound, the TGI (NCI-H226 lung) was greater than 100 µM, the TGI (NCI-H23 lung) was 51.5 µM and the TGI (NCI-H460 lung) was 51.2 µM. For the same compound, the TGI (NCI-H522 lung) was 31.1 µM, the TGI (NCI/ADR-RES ovarian) was 73.9 µM and the TGI (OVCAR-3 ovarian) was greater than 100 µM. It also gave a TGI (OVCAR-4 ovarian) greater than 100 µM, a TGI (OVCAR-5 ovarian) greater than 100 µM and a TGI (OVCAR-8 ovarian) of 46.3 µM. It also gave a TGI (PC-3 prostate) greater than 100 µM, a TGI (RXF 393 renal) of 6.7 µM and a TGI (SF-268 CNS) of 72.3 µM. The TGI (SF-295 CNS) was 39.4 µM, the TGI (SF-539 CNS) was 23.4 µM and the TGI (SK-MEL-2 melanoma) was 43 µM. The TGI (SK-MEL-28 melanoma) was 82.7 µM, the TGI (SK-MEL-5 melanoma) was 40.5 µM and the TGI (SK-OV-3 ovarian) was greater than 100 µM. It also gave a TGI (SN12C renal) of 42.7 µM, a TGI (SNB-19 CNS) of 56.1 µM and a TGI (SNB-75 CNS) of 39.6 µM. For the same compound, the TGI (SR leukemia) was 28.4 µM, the TGI (SW-620 colon) was greater than 100 µM and the TGI (T-47D breast) was 68.9 µM. The TGI (TK-10 renal) was greater than 100 µM, the TGI (U251 CNS) was greater than 100 µM and the TGI (UACC-257 melanoma) was 59.3 µM. For the same compound, the TGI (UACC-62 melanoma) was 57.2 µM and the TGI (UO-31 renal) was 29.2 µM.
